This is an account of results in USRE47689E1, “Compounds for treating spinal muscular atrophy” (PTC Therapeutics, Inc., priority 2011, dated 2019).

Data set [1] relates to SMN2 minigene (full length SMN2 minigene mRNA containing SMN2 exon 7). Put plainly: SMN2 minigene mRNA splicing RT-qPCR assay in cultured cells. The data set is classed as cell-based, human. The note with it: Homo sapiens, HEK293-H; HEK293H cells stably transfected with SMN2-A minigene; 24 hours; 7-point concentration curve; 1.5-fold relative to vehicle-treated cells; read-out: EC1.5x for production of full length SMN2 mRNA. Summed up:
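Full-length SMN2 minigene mRNA (exon 7 included), minigene-specific and not endogenous SMN, quantified by RT-qPCR multiplexed with GAPDH in stably transfected HEK293H cells after 24 h compound exposure at 37° C. Abundance from efficiency-corrected Ct, normalized to GAPDH and vehicle; EC1.5x reported as star bins.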
On the technique in general: In qPCR the cycle at which signal appears reflects the starting amount.

The subject of data set [2] is Smn protein. Put plainly: Smn protein assay in cultured cells (SMN HTRF). Type of data set: cell-based, human. The note with it: SMA patient fibroblast cells, 48 hours, 7-point concentration data, fold increase relative to vehicle control (SMN HTRF). Summed up: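 Smn in SMA fibroblast lysates, measured by anti-SMN HTRF after 48 h compound exposure; EC1.5x from fold change over vehicle.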
Background: TR-FRET usually uses a lanthanide donor and a delayed reading to cut background.

The structures appear in SMILES notation.

As for `COc1cccc(-c2cc3ccc(N4C[C@@H](C)N[C@@H](C)C4)cc3oc2=O)n1` [Compound 315, 7-[(3R,5S)-3,5-dimethylpiperazin-1-yl]-3-(6-methoxypyridin-2-yl)-2H-chromen-2-one], the melting point was 175 to 177 °C. The EC (1.5-fold) in data set [1] lay in the range of 0.3 to 1 µM. Also, the “maximum fold (Fold) increase of Smn protein” value in data set [2] was “* (maximum fold increase of ≤1.2)”.

Usually melting point stands for the temperature of the solid-liquid transition.
